The values below come from patent US20140296190A1, “MARKETING THE USE OF 25-HYDROXYVITAMIN D3 TO ENHANCE COGNITION” (DSM IP ASSETS B.V., priority 2013, published 2014).

Read-outs that look alike come from different tables or passages of the source.

Details of data set [1]: species or system human. The settings on record: in vivo. An excerpt: The design is a parallel group, randomized, placebo-controlled, double-blind study similar to that of Example 2, above, except that the participants are healthy adults under 65. The duration of supplementation is 6 months (180 days). Group size is chosen so that a statistically significant difference, if present, may be observed between placebo and test groups.
Participants are randomly allocated to either the 25-OH D3 group, Vitamin D3 group, (Vitamin D3+25 OH D3) group or placebo group. Double-blind randomization is carried out by means of a label code associated with a specific participant ID number, whose meaning is known only to the supplier. Participants are allocated randomly to these numbers.
For baseline (Day 0) the following tests are performed: Physical examination, vital signs (blood pressure, heart rate), demographics, clinical laboratory, FFQ, serum: 25-OH D3, 24,25(OH)2D, 1,25(OH)2D3, Vitamin D3, calcium, albumin, creatinine, fasting glucose, PTH; urine: calcium, creatinine; executive function tests (see below). Baseline evaluation is followed by the randomization of the subjects. From Day 2 on, they start to take the study compounds. […]

Data set [2] can be described thus: Example 2 placebo-controlled trial: serum/plasma 25-OH D3 level in frail elderly. Set-up: species or system human. The settings on record: in vivo. An excerpt:
The design is a parallel group, randomized, placebo-controlled, double-blind study with three different application groups. Each group has an appropriate number of participants (e.g., 20 participants). Eligibility is defined as being 65 years or older and being frail or pre-frail. Frailty is defined as having unintentional weight loss, weakness, self-reported exhaustion, slow walking speed, and/or low physical activity (see Fried L P, et al. Frailty in older adults: evidence for a phenotype. J Gerontol A Biol Sci Med. Sci. […] A participant is classified as pre-frail when one or two of the aforementioned criteria are met, while frail is classified when three or more criteria are present. […] The duration of supplementation is 6 months (180 days). […] Double-blind randomization is carried out by means of a label code associated with a specific participant ID number, whose meaning is known only to the supplier. Participants are allocated randomly to these numbers. For baseline (Day 0) the following tests are performed: […] Baseline evaluation is followed by the randomization of the subjects. From Day 2 on, they start to take the study compounds. […] For the combination administration, the same ranges of both actives are administered. At visits on Day 90 and Day 180 the following tests are performed: […]

The test system of data set [3] is frail elderly with a low Vitamin D status. Description: Example 2 placebo-controlled trial: executive function tests in frail elderly. The data set is classed as in vivo, human. The note with it: 6 months, in comparison to Vitamin D3 and placebo. An excerpt:
The design is a parallel group, randomized, placebo-controlled, double-blind study with three different application groups. Each group has an appropriate number of participants (e.g., 20 participants). Eligibility is defined as being 65 years or older and being frail or pre-frail. Frailty is defined as having unintentional weight loss, weakness, self-reported exhaustion, slow walking speed, and/or low physical activity (see Fried L P, et al. Frailty in older adults: evidence for a phenotype. J Gerontol A Biol Sci Med. Sci. March 2001; 56(3):[…]-156.) A participant is classified as pre-frail when one or two of the aforementioned criteria are met, while frail is classified when three or more criteria are present. […] The duration of supplementation is 6 months (180 days). […] Double-blind randomization is carried out by means of a label code associated with a specific participant ID number, whose meaning is known only to the supplier. Participants are allocated randomly to these numbers. For baseline (Day 0) the following tests are performed: […] […] Executive functioning test batteries include the following standard tests of executive functioning: Trail Making Tests A and B (to determine the ratio of TMT-B/TMT-A), Stroop Colour-Word Test, including determining the Stroop ratio, calculated by Stroop card 3/((Stroop card 1+Stroop card 2)/2) and animal fluency test. […]

The next data set has as its system healthy adults under 65. Description: Example 3 placebo-controlled trial: executive function tests in the general adult population. In kind it is in vivo, human. The note with it: healthy adults under 65, 6 months. The procedure: The design is a parallel group, randomized, placebo-controlled, double-blind study similar to that of Example 2, above, except that the participants are healthy adults under 65. The duration of supplementation is 6 months (180 days). Group size is chosen so that a statistically significant difference, if present, may be observed between placebo and test groups. […] Double-blind randomization is carried out by means of a label code associated with a specific participant ID number, whose meaning is known only to the supplier. Participants are allocated randomly to these numbers. For baseline (Day 0) the following tests are performed: […] Baseline evaluation is followed by the randomization of the subjects. From Day 2 on, they start to take the study compounds. At visits on Day 90 and Day 180 the following tests are performed: […] Executive functioning test batteries include the following standard tests of executive functioning: Trail Making Tests A and B (to determine the ratio of TMT-B/TMT-A), Stroop Colour-Word Test, including determining the Stroop ratio, calculated by Stroop card 3/((Stroop card 1+Stroop card 2)/2) and animal fluency test. These tests are always performed at the same time of the day.

On to `C=C1CC[C@H](O)C/C1=C/C=C1\CCC[C@]2(C)[C@@H]([C@H](C)CCCC(C)(C)O)CC[C@@H]12` [25(OH)D, 25-hydroxyvitamin D3], for which the “25-OH D serum level” value in data set [1] and in data set [2] was “significantly increases” throughout. Besides, the “Improvement of executive functioning” value in data set [3] is listed as “significantly higher effect”. Besides, the “Executive function in comparison to placebo” value in the data set on healthy adults under 65 is recorded as “Positive results”.
